Measured values as given in ChEMBL document CHEMBL4627246, “Pyroglutamide-Based P2X7 Receptor Antagonists Targeting Inflammatory Bowel Disease” (J Med Chem, 2020).

Tests used:
Format in all cases: cell-based
CCRF-CEM = assay: Cytotoxicity against human CCRF-CEM cells assessed as effect on cell growth at 10 uM incubated for 48 hrs by sulforhodamine B assay
HL-60(TB) = assay: Cytotoxicity against human HL-60(TB) cells assessed as effect on cell growth at 10 uM incubated for 48 hrs by sulforhodamine B assay
HOP-62 = assay: Cytotoxicity against human HOP62 cells assessed as effect on cell growth at 10 uM incubated for 48 hrs by sulforhodamine B assay; details: hop-62, 48 h
HOP-92 = assay: Cytotoxicity against human HOP92 cells assessed as effect on cell growth at 10 uM incubated for 48 hrs by sulforhodamine B assay; details: hop-92, 48 h
NCI-H460 = assay: Cytotoxicity against human NCI-H460 cells assessed as effect on cell growth at 10 uM incubated for 48 hrs by sulforhodamine B assay; details: nci-h460, 48 h
HCT-15 = assay: Cytotoxicity against human HCT15 cells assessed as effect on cell growth at 10 uM incubated for 48 hrs by sulforhodamine B assay; details: hct-15, 48 h
SW-620 = assay: Cytotoxicity against human SW620 cells assessed as effect on cell growth at 10 uM incubated for 48 hrs by sulforhodamine B assay; details: sw-620, 48 h
SF-539 = assay: Cytotoxicity against human SF539 cells assessed as effect on cell growth at 10 uM incubated for 48 hrs by sulforhodamine B assay; details: sf-539, 48 h
SNB-19 = assay: Cytotoxicity against human SNB19 cells assessed as effect on cell growth at 10 uM incubated for 48 hrs by sulforhodamine B assay; details: snb-19, 48 h
UACC-62 = assay: Cytotoxicity against human UACC62 cells assessed as effect on cell growth at 10 uM incubated for 48 hrs by sulforhodamine B assay; details: uacc-62, 48 h
OVCAR-5 = assay: Cytotoxicity against human OVCAR5 cells assessed as effect on cell growth at 10 uM incubated for 48 hrs by sulforhodamine B assay; details: ovcar-5, 48 h
ACHN = assay: Cytotoxicity against human ACHN cells assessed as effect on cell growth at 10 uM incubated for 48 hrs by sulforhodamine B assay
RXF 393 = assay: Cytotoxicity against human RXF393 cells assessed as effect on cell growth at 10 uM incubated for 48 hrs by sulforhodamine B assay; details: rxf 393, 48 h
UO-31 = assay: Cytotoxicity against human UO31 cells assessed as effect on cell growth at 10 uM incubated for 48 hrs by sulforhodamine B assay; details: uo-31, 48 h
PC-3 = assay: Cytotoxicity against human PC3 cells assessed as effect on cell growth at 10 uM incubated for 48 hrs by sulforhodamine B assay; details: pc-3, 48 h
MCF7 = assay: Cytotoxicity against human MCF7 cells assessed as effect on cell growth at 10 uM incubated for 48 hrs by sulforhodamine B assay; details: mcf7, 48 h
MDA-MB-231 = assay: Cytotoxicity against human MDA-MB-231 cells assessed as effect on cell growth at 10 uM incubated for 48 hrs by sulforhodamine B assay; details: mda-mb-231, 48 h
Hs-578T = assay: Cytotoxicity against human Hs 578T cells assessed as effect on cell growth at 10 uM incubated for 48 hrs by sulforhodamine B assay
BT-549 = assay: Cytotoxicity against human BT549 cells assessed as effect on cell growth at 10 uM incubated for 48 hrs by sulforhodamine B assay; details: bt-549, 48 h
T47D = assay: Cytotoxicity against human T47D cells assessed as effect on cell growth at 10 uM incubated for 48 hrs by sulforhodamine B assay

Measured: Activity

O=C1N[C@H](C(=O)NCc2ccc(Cl)cc2Cl)C/C1=C\N1CCOCC1
Non-Toxic: all assays above

O=C(NCCc1ccc(Cl)cc1Cl)[C@@H]1CCC(=O)N1c1ccccc1
Non-Toxic: all assays above

O=C(NCc1ccccc1Cl)[C@@H]1CCC(=O)N1c1ccccc1
Non-Toxic: all assays above

COc1ccc(NC(=O)[C@@H]2C/C(=C\N(C)C)C(=O)N2)cc1
Non-Toxic: all assays above

CN1C(=O)CC[C@H]1C(=O)NCc1cccc(C(F)(F)F)c1Cl [GSK1482160]
Non-Toxic: all assays above

O=C(NCc1ccc(Cl)cc1Cl)[C@@H]1CCC(=O)N1c1cccs1
Non-Toxic: all assays above

COc1ccccc1CN1C(=O)[C@@H]2C/C(=C\N(C)C)C(=O)N2C1N(C)C (stereo not given in full)
Non-Toxic: all assays above

O=C(NCCc1ccccc1)[C@@H]1CCC(=O)N1Cc1ccc(Br)cc1
Non-Toxic: all assays above

COc1ccc(N2C(=O)CC[C@H]2C(=O)NCc2ccc(Cl)cc2Cl)cc1
Non-Toxic: all assays above

CN1C(=O)C(C)(C)C[C@H]1C(=O)NCc1cccc(C(F)(F)F)c1Cl
Non-Toxic: all assays above

O=C1N[C@H](C(=O)NCc2ccc(Cl)cc2Cl)C/C1=N\O (stereo in doubt)
Non-Toxic: all assays above

CN(C)/C=C1\C[C@H]2C(=O)N(Cc3ccc(Cl)cc3Cl)C(N(C)C)N2C1=O (stereo not given in full)
Non-Toxic: all assays above

COc1ccc(N2C(=O)[C@@H]3C/C(=C\N(C)C)C(=O)N3C2N(C)C)cc1 (stereo not given in full)
Non-Toxic: all assays above

COc1ccc(NC(=O)[C@@H]2CCC(=O)N2)cc1OC
Non-Toxic: all assays above
